Data taken from patent publication US11207312B2, “Metallo-beta-lactamase inhibitors and methods of use thereof” (priority 2017, dated 2021).

Assays:
VIM-1 = VIM-1 (Pseudomonas aeruginosa (strain ATCC 15692 / DSM 22644 / CIP 104116 / JCM 14847 / LMG 12228 / 1C / PRS 101 / PAO1), UniProt A0A0F7KYQ8); experiment: biochemical; conditions: CCF2-FA fluorescence assay, 2 hours at 25° C.; read-out: VIM1 IC50
In short: (§1)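 IC50s come from 4-parameter fits of inhibition versus inhibitor concentration, tested from 20 μM down to 0.00063 μM. Enzyme, CCF2-FA (1.25 μM) and inhibitor react 2 h at 25° C, pH 7, with 10 μM ZnSO4 and 0.005% Tween-20.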

IMP-1 = IMP-1 (Serratia marcescens, UniProt P52699); experiment: biochemical; conditions: CCF2-FA fluorescence assay, 2 hours at 25° C.; read-out: IMP1 IC50
Sequence of IMP-1 (P52699 whole entry, looked up, species assumed): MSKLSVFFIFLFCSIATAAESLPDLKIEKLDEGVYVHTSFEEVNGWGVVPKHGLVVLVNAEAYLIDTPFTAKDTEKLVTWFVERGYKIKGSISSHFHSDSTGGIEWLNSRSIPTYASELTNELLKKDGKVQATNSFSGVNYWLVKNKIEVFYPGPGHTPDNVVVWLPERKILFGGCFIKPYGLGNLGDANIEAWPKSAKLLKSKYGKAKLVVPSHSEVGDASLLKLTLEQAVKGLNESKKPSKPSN
In short: as §1

[1] = system: P. aeruginosa MB9799 (efflux-, IMP-1 plasmid); assay type: cell-based, Pseudomonas aeruginosa; conditions: efflux − (MB9799) strain; imipenem at 2 μg/mL; in the presence of a class A, C, D serine β-lactamase inhibitor closely related to relebactam
In short: (§2)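 PAO1-derived isogenic pair (oprD+, inducible AmpC), efflux+ MB5919 or efflux− MB5890 parent, carrying an electroporated IMP-1 plasmid from a clinical isolate. Microbroth MIC with fixed imipenem and/or ceftazidime (usually CLSI breakpoint) plus fixed class A/C inhibitor; MBL inhibitor serially titrated, concentration restoring susceptibility recorded.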

NDM-1 = NDM-1 (Klebsiella pneumoniae, UniProt C7C422); experiment: biochemical; assay type: biochemical; conditions: CCF2-FA fluorescence assay, 2 hours at 25° C.
Sequence of NDM-1 (C7C422 whole entry, looked up, species assumed): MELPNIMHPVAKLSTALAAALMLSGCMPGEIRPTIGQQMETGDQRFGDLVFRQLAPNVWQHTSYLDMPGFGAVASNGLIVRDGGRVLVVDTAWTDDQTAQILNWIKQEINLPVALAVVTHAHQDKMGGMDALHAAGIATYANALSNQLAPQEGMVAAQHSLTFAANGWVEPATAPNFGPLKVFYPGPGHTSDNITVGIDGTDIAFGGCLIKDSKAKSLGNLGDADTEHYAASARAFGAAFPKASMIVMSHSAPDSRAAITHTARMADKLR
In short: as §1

VIM-2 = VIM-2 (Escherichia coli, UniProt Q5U7L7); experiment: biochemical; conditions: CCF2-FA fluorescence assay; read-out: VIM2 IC50
[2] = system: Serratia marcescens expressing IMP-1 (CL5741); assay type: cell-based; conditions: with imipenem 1 μg/ml; 95% inhibition of bacterial growth
In short: (§3)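 Each strain, diluted 1:100 from saline suspension into 1.1× CAMHB, was combined with imipenem held at 1 μg/ml and graded inhibitor. Growth after 22–24 h at 35 °C was measured by absorbance, and the lowest concentration achieving 95% inhibition defined MITC95.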

[3] = system: Escherichia coli expressing NDM-1 (CLB30016); assay type: cell-based; conditions: with imipenem 1 μg/ml; 95% inhibition of bacterial growth
In short: as §3

[4] = system: Klebsiella pneumoniae expressing VIM-1 (IHMA599644); assay type: cell-based; conditions: with imipenem 1 μg/ml; 95% inhibition of bacterial growth
In short: as §3

[5] = system: P. aeruginosa MB9798 (efflux+, IMP-1 plasmid); conditions: for MB9798 MITC95 P. aeruginosa uM Efflux WT: efflux + (MB9798) strain, imipenem at 2 μg/mL, in the presence of a class A, C, D serine β-lactamase inhibitor closely related to relebactam; for Efflux ratio: fold difference between efflux+ (MB9798) and efflux− (MB9799) strains
In short: as §2

Compound | IC50 (VIM-1) | IC50 (IMP-1) | MB9799 MITC95 P. aeruginosa uM Efflux Mutant [1] | IC50 (NDM-1) | IC50 (VIM-2) | CL5741 S. marcescens MITC95 IMP [2] | CLB30016 E. coli MITC95 NDM [3] | IHMA599644 K. pneumoniae MITC95 VIM [4] | MB9798 MITC95 P. aeruginosa uM Efflux WT [5] | Efflux ratio [5]
NS(=O)(=O)c1c(S(=O)(=O)N[C@@H]2CCNC2)ccc(N2CC[C@@H](O)C2)c1-c1nnn[nH]1 [Example 99, 4-[(3R)-3-hydroxypyrrolidin-1-yl]-N1-[(3R)-pyrrolidin-3-yl]-3-(1H-tetrazol-5-yl)benzene-1,2-disulfonamide] | 2.66 nM | 1.33 nM | 3.13 µM | 0.92 nM | 3.22 nM | 3.13 µM | 1.56 µM | 6.25 µM | 3.13 µM | 1.00
NC[C@@H](O)CNS(=O)(=O)c1ccc(N2CC[C@@H](N)[C@@H](F)C2)c(-c2nn[nH]n2)c1S(N)(=O)=O [Example 207, N1-((R)-3-amino-2-hydroxypropyl)-4-((3S,4R)-4-amino-3-fluoropiperidin-1-yl)-3-(2H-tetrazol-5-yl)benzene-1,2-disulfonamide] | 0.86 nM | 25.2 nM | 1.56 µM | 15 nM | 25.6 nM | 0.20 µM | 0.39 µM | 0.78 µM | 1.56 µM | 1.00
NC[C@@H](O)CNS(=O)(=O)c1ccc(N2CC[C@@H](CN)C2)c(-c2nn[nH]n2)c1S(N)(=O)=O [Example 121, N1-((R)-3-amino-2-hydroxypropyl)-4-((S)-3-(aminomethyl)pyrrolidin-1-yl)-3-(2H-tetrazol-5-yl)benzene-1,2-disulfonamide] | 4.54 nM | 66.8 nM | 3.13 µM | 58.7 nM | 30.4 nM | 1.56 µM | 1.56 µM | 0.78 µM | 6.25 µM | 2.00
NCCC1CCN(c2ccc(S(=O)(=O)N[C@H](CN)CO)c(S(N)(=O)=O)c2-c2nn[nH]n2)CC1 [Example 188, (R)-N1-(1-amino-3-hydroxypropan-2-yl)-4-(4-(2-aminoethyl)piperidin-1-yl)-3-(2H-tetrazol-5-yl)benzene-1,2-disulfonamide] | 0.13 nM | 3.68 nM | 0.78 µM | 2.86 nM | 4.85 nM | 0.78 µM | 0.78 µM | 1.56 µM | 0.78 µM | 1.00
NC(=O)[C@H]1CN(c2ccc(S(=O)(=O)N[C@@H]3CCNC3)c(S(N)(=O)=O)c2-c2nn[nH]n2)CCN1 [Example 197, (R)-4-(4-(N-((R)-pyrrolidin-3-yl)sulfamoyl)-3-sulfamoyl-2-(2H-tetrazol-5-yl)phenyl)piperazine-2-carboxamide] | 0.74 nM | 9.95 nM | 1.56 µM | 1.44 nM | 1.89 nM | 0.39 µM | 0.29 µM | 1.56 µM | 3.13 µM | 2.00
NS(=O)(=O)c1c(S(=O)(=O)C2CNC2)ccc(N2CCC(O)CC2)c1-c1nnn[nH]1 [Example 31, 6-(azetidin-3-ylsulfonyl)-3-(4-hydroxypiperidin-1-yl)-2-(1H-tetrazol-5-yl)benzenesulfonamide] | 0.89 nM | 1.89 nM | 1.56 µM | 1.67 nM | 3.36 nM | 3.13 µM | 1.56 µM | 3.13 µM | 6.25 µM | 4.00
NC[C@@H](O)CNS(=O)(=O)c1ccc(N2CCC(F)(CN)CC2)c(-c2nn[nH]n2)c1S(N)(=O)=O [Example 3] | 0.61 nM | 3.95 nM | 0.39 µM | 2.43 nM | 3.68 nM | 1.56 µM | 0.78 µM | 0.78 µM | 0.78 µM | 2.00
NC[C@@H](O)CNS(=O)(=O)c1ccc(N2CCC(C(N)CO)CC2)c(-c2nn[nH]n2)c1S(N)(=O)=O (mixture of isomers) [Example 182, 4-(4-(1-Amino-2-hydroxyethyl)piperidin-1-yl)-N1-((R)-3-amino-2-hydroxypropyl)-3-(2H-tetrazol-5-yl)benzene-1,2-disulfonamide] | 0.27 nM | 4 nM | 0.78 µM | 3.77 nM | 3.82 nM | 0.78 µM | 0.39 µM | 1.56 µM | 0.78 µM | 1.00
NS(=O)(=O)c1c(S(=O)(=O)N[C@@H]2CCNC2)ccc(N2CCC(CO)CC2)c1-c1nnn[nH]1 [Example 101, 4-[4-(hydroxymethyl)piperidin-1-yl]-N1-[(3R)-pyrrolidin-3-yl]-3-(1H-tetrazol-5-yl)benzene-1,2-disulfonamide] | 0.09 nM | 0.16 nM | 0.78 µM | 0.08 nM | 0.39 nM | 1.56 µM | 0.78 µM | 3.13 µM | 1.56 µM | 2.00
NCCC1CCN(c2ccc(S(=O)(=O)N[C@@H]3CCNC3)c(S(N)(=O)=O)c2-c2nn[nH]n2)CC1 [Example 16, (R)-4-(4-(2-aminoethyl)piperidin-1-yl)-N^1-(pyrrolidin-3-yl)-3-(2H-tetrazol-5-yl)benzene-1,2-disulfonamide] | 0.08 nM | 1.85 nM | 0.78 µM | 0.72 nM | 1.61 nM | 1.56 µM | 1.17 µM | 1.56 µM | 0.78 µM | 1.00
NS(=O)(=O)c1c(S(=O)(=O)N[C@@H]2CCNC2)ccc(NCCN2CCNCC2)c1-c1nnn[nH]1 [Example 75, 4-[(2-piperazin-1-ylethyl)amino]-N1-[(3R)-pyrrolidin-3-yl]-3-(1H-tetrazol-5-yl)benzene-1,2-disulfonamide] | 6.75 nM | 178 nM | 3.13 µM | 162 nM | 200 nM | 12.50 µM | 6.25 µM | 3.13 µM | 25.00 µM | 8.00
NC[C@@H](O)CNS(=O)(=O)c1ccc(N2CCC(CC(N)=O)CC2)c(-c2nn[nH]n2)c1S(N)(=O)=O [Example 25, (R)-2-(1-(4-(N-(3-amino-2-hydroxypropyl)sulfamoyl)-3-sulfamoyl-2-(2H-tetrazol-5-yl)phenyl)piperidin-4-yl)acetamide] | 0.17 nM | 0.39 nM | 3.13 µM | 0.54 nM | 0.74 nM | 6.25 µM | 3.13 µM | 6.25 µM | 3.13 µM | 1.00
NC[C@@H](O)CNS(=O)(=O)c1ccc(N2C[C@@H]3[C@@H](CN)[C@@H]3C2)c(-c2nn[nH]n2)c1S(N)(=O)=O [Example 11] | 2.03 nM | 35.5 nM | 1.56 µM | 8.96 nM | 24.7 nM | 1.56 µM | 0.78 µM | 0.78 µM | 6.25 µM | 4.00
